Experimental data reported in patent publication US7968561B2, “Steroidal compounds as steroid sulphatase inhibitors” (Sterix Limited, priority 2006, dated 2011).

Assays:
STS [1] = target: T1, STS (Mus musculus, UniProt P50427); assay: Liver STS activity in MCF-7STS xenograft mice; format: in vivo; conditions: Study 2: 1 mg/kg p.o. once per week
T1 construct: from tissue; host or cells: liver of MF-1 nude mice, homogenate
T1 sequence (P50427 23-624): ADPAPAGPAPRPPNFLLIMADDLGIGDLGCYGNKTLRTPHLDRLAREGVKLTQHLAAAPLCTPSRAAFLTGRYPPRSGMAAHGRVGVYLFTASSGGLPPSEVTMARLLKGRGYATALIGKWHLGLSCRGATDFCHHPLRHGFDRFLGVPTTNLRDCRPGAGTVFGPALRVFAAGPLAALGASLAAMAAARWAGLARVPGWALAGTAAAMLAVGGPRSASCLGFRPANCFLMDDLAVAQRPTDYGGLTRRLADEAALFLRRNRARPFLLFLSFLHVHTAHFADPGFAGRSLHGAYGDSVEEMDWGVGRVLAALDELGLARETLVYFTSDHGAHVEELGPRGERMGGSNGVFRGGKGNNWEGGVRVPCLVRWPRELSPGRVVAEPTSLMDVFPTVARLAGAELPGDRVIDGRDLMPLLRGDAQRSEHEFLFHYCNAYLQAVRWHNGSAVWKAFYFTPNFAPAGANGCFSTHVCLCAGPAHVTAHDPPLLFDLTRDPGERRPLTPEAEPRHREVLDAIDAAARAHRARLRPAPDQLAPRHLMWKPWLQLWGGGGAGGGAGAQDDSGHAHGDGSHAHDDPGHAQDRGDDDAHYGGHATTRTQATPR
Method: (§1) Ovariectomised, athymic female MF-1 nude mice (nu/nu) (age 6-8 weeks) were obtained from Harlan Olac. Twenty four hours before the inoculation of MCF-7STS cells animals were injected s.c. with estradiol sulphate (E2S). On the day of inoculation 5×10^6 MCF-7STS cells (50 μl in Matrigel) were injected s.c. into the right flank of the mice. After cell inoculation mice were injected with E2S (100 μg/50 μl) and received another injection of these steroids 24 h later. Mice then received E2S 3 times per week until the end of the study. When tumours had reached approximately 80 mm^3 dosing was initiated with compounds being administered orally (100 μl; vehicle 10% THF: 90% propylene glycol) at 1 mg/kg. Tumour measurements and the weight of animals were recorded weekly. Samples of tumour and liver tissues together with blood were collected at a number of time points after the cessation of dosing.
Samples of tumour or liver tissues were homogenised in phosphate buffered saline (pH 7.4 containing 250 mM sucrose). Duplicate aliquots were incubated for 4 h with [^3H-E1S] […] An aliquot of the toluene was removed and the ^3H and ^14C radioactivity measured by liquid scintillation spectrometry. The mass of oestrone sulphate hydrolysed was calculated form the ^3H counts detected, corrected for procedural losses.

[2] = Plasma oestradiol concentrations by radioimmunoassay; format: in vivo, mice; conditions: Study 2: once weekly dosing, extended period after cessation of dosing
Method: as §1
Plasma oestradiol concentrations were measured by a specific radioimmunoassay procedure.

[3] = rats; cited from earlier work
[4] = target: T2, dehydroepiandrosterone sulphatase (DHA-STS) (Rattus norvegicus, UniProt P15589); conditions: administered orally or subcutaneously; cited from earlier work
T2 construct: host or cells: rat liver
T2 sequence (P15589 20-577): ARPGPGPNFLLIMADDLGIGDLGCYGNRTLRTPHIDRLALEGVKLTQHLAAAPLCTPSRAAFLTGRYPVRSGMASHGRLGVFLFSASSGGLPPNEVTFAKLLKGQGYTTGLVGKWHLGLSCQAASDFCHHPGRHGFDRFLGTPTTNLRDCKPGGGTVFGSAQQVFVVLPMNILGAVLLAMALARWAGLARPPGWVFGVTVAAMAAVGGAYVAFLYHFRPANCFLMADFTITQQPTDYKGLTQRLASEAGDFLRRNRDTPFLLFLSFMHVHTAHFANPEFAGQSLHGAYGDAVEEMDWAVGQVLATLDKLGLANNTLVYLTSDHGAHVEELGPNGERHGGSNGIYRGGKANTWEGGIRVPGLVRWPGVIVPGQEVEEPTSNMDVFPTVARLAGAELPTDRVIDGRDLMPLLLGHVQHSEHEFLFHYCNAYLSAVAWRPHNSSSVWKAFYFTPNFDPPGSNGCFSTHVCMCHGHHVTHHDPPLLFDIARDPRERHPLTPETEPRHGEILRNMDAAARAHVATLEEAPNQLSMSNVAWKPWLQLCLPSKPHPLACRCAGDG

E1-STS [5] = target: T3, E1-STS (Rattus norvegicus, UniProt P15589); conditions: administered orally or subcutaneously; cited from earlier work
T3 construct: host or cells: rat liver
T3 sequence (P15589 20-577): T2 sequence (P15589 20-577)

E1-STS [6] = target: T4, E1-STS (Homo sapiens, UniProt P08842); design: dose or concentration left out as unconfirmed; conditions: intact MCF-7 cells; cited from earlier work
T4 construct: endogenous in cells; host or cells: intact MCF-7 cells
T4 sequence (P08842 22-583): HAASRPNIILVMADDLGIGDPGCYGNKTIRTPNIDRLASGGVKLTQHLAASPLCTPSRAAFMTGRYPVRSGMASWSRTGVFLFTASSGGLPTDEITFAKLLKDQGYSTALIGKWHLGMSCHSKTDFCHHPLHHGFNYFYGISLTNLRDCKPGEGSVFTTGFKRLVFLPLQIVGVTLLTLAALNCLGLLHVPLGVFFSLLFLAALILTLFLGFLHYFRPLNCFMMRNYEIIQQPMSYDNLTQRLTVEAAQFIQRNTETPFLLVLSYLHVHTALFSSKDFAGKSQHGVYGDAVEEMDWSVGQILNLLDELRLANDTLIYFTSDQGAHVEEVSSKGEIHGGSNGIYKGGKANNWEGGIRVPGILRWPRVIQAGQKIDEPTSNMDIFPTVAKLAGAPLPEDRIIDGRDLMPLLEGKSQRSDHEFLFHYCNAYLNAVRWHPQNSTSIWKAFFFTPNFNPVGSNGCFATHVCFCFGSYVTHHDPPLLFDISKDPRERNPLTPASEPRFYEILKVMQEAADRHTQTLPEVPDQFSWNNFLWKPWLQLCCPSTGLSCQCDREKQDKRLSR

STS [7] = target: T5, STS (Rattus norvegicus, UniProt P15589); assay: STS activity in rat livers 15 days after a single p.o. dose; format: in vivo; conditions: rat liver
T5 construct: from tissue; host or cells: rat liver
T5 sequence (P15589 20-577): T2 sequence (P15589 20-577)

steroid sulphatase (STS) = target: T6, steroid sulphatase (STS) (Homo sapiens, UniProt P08842); assay: IC50 for steroid sulphatase inhibition measured in JEG-3 cells; format: cell-based
T6 construct: endogenous in cells; host or cells: JEG-3 cells
T6 sequence (P08842 22-583): T4 sequence (P08842 22-583)

[8] = system: MCF-7STS cells (MCF-7 cells over expressing STS); assay: Growth of E2S-stimulated MCF-7STS xenograft tumours in nude mice; format: in vivo; conditions: Study 2: 1 mg/kg p.o. once per week for 7 weeks
Method: Ovariectomised, athymic female MF-1 nude mice (nu/nu) (age 6-8 weeks) were obtained from Harlan Olac. Twenty four hours before the inoculation of MCF-7STS cells animals were injected s.c. with estradiol sulphate (E2S). On the day of inoculation 5×10^6 MCF-7STS cells (50 μl in Matrigel) were injected s.c. into the right flank of the mice. After cell inoculation mice were injected with E2S (100 μg/50 μl) and received another injection of these steroids 24 h later. Mice then received E2S 3 times per week until the end of the study. […] Tumour measurements and the weight of animals were recorded weekly. Samples of tumour and liver tissues together with blood were collected at a number of time points after the cessation of dosing.
Tumours were measured weekly and their volumes calculated using the equation length×width^2/2.
Student's t test was used to assess the significance of the differences in tumour volumes for the different groups.

C[C@]12CCC3c4ccc(OS(N)(=O)=O)cc4CCC3C1CC(=O)N(CCC(F)(F)F)C2=O (some centres unmarked) [STX1938, 3-Sulfomoyloxy-N-(3,3,3-trifluoropropyl)-16,17-seco-Estra-1,3,5(10)-triene-16,17-imide]
inhibition of liver STS (STS [1]): almost complete inhibition
plasma oestradiol levels [2]: significantly reduced

C[C@]12CC[C@@H]3c4ccc(OS(N)(=O)=O)cc4CC[C@H]3[C@@H]1CCC2=O [EMATE, estrone-3-O-sulfamate]
oral uterotrophic activity relative to oestradiol [3]: 100 times
inhibition of rat liver DHA-STS activity [4]: 99%
inhibition of rat liver E1-STS activity (E1-STS [5]): 99%
inhibition of E1-STS activity (E1-STS [6]): more than 99%

CCCN1C(=O)CC2C3CCc4cc(OS(N)(=O)=O)ccc4C3CC[C@]2(C)C1=O (some centres unmarked) [STX213]
STS activity recovered (STS [7]): 69%
inhibition of STS activity (STS [7]): 31%
IC50 (steroid sulphatase (STS)): 0.18 nM

NS(=O)(=O)Oc1ccc2c3c(c(=O)oc2c1)CCCCC3 [STX64]
reduction of liver STS activity (STS [1]): 25-50%
tumour growth [8]: ineffective
